Patent US20030032003A1, “IN VIVO SELECTION” (priority 2000, published 2003)

Experiments:
[1] = test system: hyg^R transgenic mice C57BL/6J-TgN(pPWL512hyg)1Ems; assay: Acute toxicity of hygromycin B, approximate lethal dose; format: in vivo, mouse; settings: for body weight, percentage of the body weight before the experiment / survival: hyg^R, 10 days
Experimental: (§1) The animals were kept in SPF conditions, supplied with standard diet and water ad libitum. The room was held at 22° C. with humidity 70% and 12 hours dark-light cycle. Hygromycin-B was purchased from Sigma. The compound was dissolved in sterile water before application and the solution was injected i.p.
(§2) The approximate lethal dose of hygromycin B after single i.p. injections was determined according to Deichmann and LeBlanc (1943). […] Two sets of six month old male mice (22-28 g) were used for all acute toxicity experiments. […] Total volume injected was 0.5 ml. The health status and body weights of animals were monitored daily for 10 consecutive days. The lowest dose in the dose response curve at which one mouse died was considered as the approximate lethal dose. […] The animals were checked twice a day. The maximum theoretical time the animals could be dead before necropsy was performed was 12 hrs.
(§3) The approximate lethal dose (Deichmann and LeBlanc 1943) of hygromycin B in transgenic hyg^R bearing as well as wildtype mice was determined as a measure of the acute toxicity. […] The first dose in the increasing sequence of doses at which the mice died was considered the approximate lethal dose. The health status of animals was monitored for ten consecutive days. Hyg^R transgenic and wildtype mice tolerated a single i.p. injection of hygromycin B without immediate toxic symptoms or distress. The approximate lethal dose of hygromycin B for wildtype mice was […] (Table 1). […] Lethal doses in both hyg^R expressing transgenic and wild type strains caused the same signs of decreased activity which progressed to lethargy and death. The body weight of animals after lethal doses decreased which was less severe at shorter survival duration after hygromycin treatment (Table 1).

wildtype C57BL/6J mice = assay: as above; format: in vivo, mouse; settings: for body weight, percentage of the body weight before the experiment / survival: wildtype, 10 days
Experimental: as §1, §2, §3

hyg^R mice [2] = assay: Biochemical analysis of serum after hygromycin B; format: in vivo, mouse; settings: serum 48 hrs after treatment
Experimental: (§4) Serum biochemistry parameters analyzed included blood urea nitrogen ([…]), aspartate amino transferase (AST) and alanine amino transferase (ALT). The analyses were performed at Tufts University Veterinary Medical Diagnosis Laboratory with the chemical analyzer Hitachi 747. Blood was collected from the posterior vena cava of hyg^R mice that were treated with saline, 803 mg/kg and wildtype mice administered 9 mg/kg hygromycin B i.p.
(§5) Hyg^R mice were treated with the lethal dose of 803 mg/kg hygromycin B and wildtype mice were treated with the lethal dose of 9 mg/kg hygromycin B. As a control, hyg^R mice were also treated with the nontoxic dose of 9 mg/kg. Serum samples taken 48 hrs after treatment were evaluated for the levels of blood urea nitrogen (BUN), aspartate amino transferase (AST) and alanine amino transferase (ALT). Elevated BUN is associated with dehydration and/or renal insufficiency. Elevated activities of ALT and AST are characteristic for liver damage particularly necrosis, cirrhosis and/or hepatitis. Increased AST levels are also characteristic for muscle trauma, myocardial infarction or myositis.

wildtype mice [3] = assay: Biochemical analysis of serum after hygromycin B; format: in vivo, mouse; settings: 9 mg/kg single i.p., serum 48 hrs after treatment
Experimental: as §4, §5

hyg^R mice [4] = assay: Histopathological analysis of mouse tissues after Hygromycin B; format: in vivo; settings: lethal dose 803 mg/kg
Experimental: (§6) The organs were prepared as paraffin-embedded glass slides stained with hematoxylin and eosin and evaluated as per the NTP (National Toxicology Program of NIEHS) standards. […] For liver, two cross sections, one of each of the two largest liver lobes were examined. For kidneys, an entire cross section (left longitudinal, right transverse) were evaluated. Lungs had two cross sections (one of each of the two largest lobes). The entire sections on the slides (all fields) were evaluated under blinded conditions for lesions and scored (graded) on a subjective basis compared to control animals. The grades were as follows: 1=minimal, 2=mild, 3=moderate, 4=marked, and 0=no pathological changes. The preparation and evaluation of slides used the NTP criteria and terminology (NIEHS, 1993).
(§7) Morphological manifestations of hygromycin B tissue specific toxicity in animals treated with lethal doses was assessed by microscopic analysis. Lethal doses of hygromycin B (9 mg/kg) in wildtype animals caused nephrotoxicity typified by tubule eosinophilia, degeneration, and necrosis characterized by cytoplasmic eosinophilia associated with necrosis, loss of tubule cellular and nuclear detail or degeneration, and pyknotic nuclei and fragmentation of cells. These lesions are typical of acute tubular nephrosis. […] The hyg^R mice treated with lethal doses of hygromycin B (803 mg/kg) had liver damage characterized as hepatocellular fatty change, acute inflammation, and hepatocellular necrosis. Liver lesions in the hyg^R transgenic mice were typified by hepatocellular necrosis with nuclear pyknosis and loss of cellular detail, acute infiltration with small foci of neutrophils, and fatty change with hepatocellular intracytoplasmic large distinct clear vacuoles that displaced nuclei. These liver lesions are characteristic of acute liver damage.

wildtype mice [5] = assay: as above; format: in vivo; settings: lethal dose 9 mg/kg
Experimental: as §6, §7

CN[C@H]1C[C@@H](N)[C@H](O)[C@@H](O[C@@H]2O[C@H](CO)[C@H](O)[C@@H]3OC4(O[C@H]23)O[C@H]([C@@H](N)CO)[C@H](O)[C@H](O)[C@H]4O)[C@@H]1O (stereo partly drawn) [hygromycin B, Hygromycin-B]
approximate lethal dose ([1]; hyg^R animals, single i.p.): 535 mg/kg | increase of approximate lethal dose over the wildtype strain ([1]; hyg^R vs wildtype): 89 fold | body weight, percentage of the body weight before the experiment ([1]; 4 mg/kg single i.p.): 102 ± 2% | survival ([1]; 4 mg/kg single i.p.): surv (surv. animals survived the 10 days period) | body weight, percentage of the body weight before the experiment ([1]; 6 mg/kg single i.p.): 107 ± 4% | survival ([1]; 6 mg/kg single i.p.): surv (surv. animals survived the 10 days period) | body weight, percentage of the body weight before the experiment ([1]; 9 mg/kg single i.p.): 107 ± 3% | survival ([1]; 9 mg/kg single i.p.): surv (surv. animals survived the 10 days period) | body weight, percentage of the body weight before the experiment ([1]; 13.5 mg/kg single i.p.): 101 ± 2% | survival ([1]; 13.5 mg/kg single i.p.): surv (surv. animals survived the 10 days period) | body weight, percentage of the body weight before the experiment ([1]; 20 mg/kg single i.p.): 105 ± 1% | survival ([1]; 20 mg/kg single i.p.): surv (surv. animals survived the 10 days period) | body weight, percentage of the body weight before the experiment ([1]; 30 mg/kg single i.p.): 105 ± 3% | survival ([1]; 30 mg/kg single i.p.): surv (surv. animals survived the 10 days period) | body weight, percentage of the body weight before the experiment ([1]; 46 mg/kg single i.p.): 107 ± 5% | survival ([1]; 46 mg/kg single i.p.): surv (surv. animals survived the 10 days period) | body weight, percentage of the body weight before the experiment ([1]; 69 mg/kg single i.p.): 101 ± 3% | survival ([1]; 69 mg/kg single i.p.): surv (surv. animals survived the 10 days period) | body weight, percentage of the body weight before the experiment ([1]; 104 mg/kg single i.p.): 103 ± 2% | survival ([1]; 104 mg/kg single i.p.): surv (surv. animals survived the 10 days period) | body weight, percentage of the body weight before the experiment ([1]; 155 mg/kg single i.p.): 102 ± 2% | survival ([1]; 155 mg/kg single i.p.): surv (surv. animals survived the 10 days period) | body weight, percentage of the body weight before the experiment ([1]; 233 mg/kg single i.p.): 93 ± 5% | survival ([1]; 233 mg/kg single i.p.): surv (surv. animals survived the 10 days period) | body weight, percentage of the body weight before the experiment ([1]; 358 mg/kg single i.p.): 99 ± 3% | survival ([1]; 358 mg/kg single i.p.): surv (surv. animals survived the 10 days period) | body weight, percentage of the body weight before the experiment ([1]; 535 mg/kg single i.p.): 83 ± 5% | survival ([1]; 535 mg/kg single i.p.): 3 days | body weight, percentage of the body weight before the experiment ([1]; 803 mg/kg single i.p.): 89 ± 4% | survival ([1]; 803 mg/kg single i.p.): 3.5 days | body weight, percentage of the body weight before the experiment ([1]; 1205 mg/kg single i.p.): 88 ± 2% | survival ([1]; 1205 mg/kg single i.p.): 2 days | body weight, percentage of the body weight before the experiment ([1]; 1809 mg/kg single i.p.): 97 ± 2% | survival ([1]; 1809 mg/kg single i.p.): 1 days | body weight, percentage of the body weight before the experiment ([1]; 2709 mg/kg single i.p.): 98 ± 1% | survival ([1]; 2709 mg/kg single i.p.): 1 days | approximate lethal dose (wildtype C57BL/6J mice; wildtype mice, single i.p.): 6 mg/kg | body weight, percentage of the body weight before the experiment (wildtype C57BL/6J mice; 2.7 mg/kg single i.p.): 107 ± 3% | survival (wildtype C57BL/6J mice; 2.7 mg/kg single i.p.): surv (surv. animals survived the 10 days period) | body weight, percentage of the body weight before the experiment (wildtype C57BL/6J mice; 4 mg/kg single i.p.): 104 ± 1% | survival (wildtype C57BL/6J mice; 4 mg/kg single i.p.): surv (surv. animals survived the 10 days period) | body weight, percentage of the body weight before the experiment (wildtype C57BL/6J mice; 6 mg/kg single i.p.): 83 ± 2% | survival (wildtype C57BL/6J mice; 6 mg/kg single i.p.): 3 days | body weight, percentage of the body weight before the experiment (wildtype C57BL/6J mice; 9 mg/kg single i.p.): 91 ± 4% | survival (wildtype C57BL/6J mice; 9 mg/kg single i.p.): 3 days | body weight, percentage of the body weight before the experiment (wildtype C57BL/6J mice; 13.5 mg/kg single i.p.): 86 ± 6% | survival (wildtype C57BL/6J mice; 13.5 mg/kg single i.p.): 3 days | body weight, percentage of the body weight before the experiment (wildtype C57BL/6J mice; 20 mg/kg single i.p.): 83 ± 2% | survival (wildtype C57BL/6J mice; 20 mg/kg single i.p.): 3 days | body weight, percentage of the body weight before the experiment (wildtype C57BL/6J mice; 30 mg/kg single i.p.): 82 ± 2% | survival (wildtype C57BL/6J mice; 30 mg/kg single i.p.): 3 days | ALT (hyg^R mice [2]; 9 mg/kg single i.p.): 28.7 ± 15.1 u/l | AST (hyg^R mice [2]; 9 mg/kg single i.p.): 43.0 ± 5.2 u/l | BUN (hyg^R mice [2]; 9 mg/kg single i.p.): 24.0 ± 4 mg/dL | ALT (hyg^R mice [2]; 803 mg/kg single i.p.): 108 ± 66.3 u/l | AST (hyg^R mice [2]; 803 mg/kg single i.p.): 102.0 ± 12.7 u/l | BUN (hyg^R mice [2]; 803 mg/kg single i.p.): 102 ± 55.1 mg/dL | ALT (wildtype mice [3]): 108 ± 61.5 u/l | AST (wildtype mice [3]): 135 ± 29.7 u/l | BUN (wildtype mice [3]): 97.7 ± 5.5 mg/dL | Kidney Tubule degeneration, lesion severity grade (hyg^R mice [4]): 0 | Kidney Tubule eosinophilia, lesion severity grade (hyg^R mice [4]): 0 | Kidney Tubule necrosis, lesion severity grade (hyg^R mice [4]): 0 | Liver Acute inflamation, lesion severity grade (hyg^R mice [4]): 0.8 ± 1.0 | Liver Fatty change, lesion severity grade (hyg^R mice [4]): 0.6 ± 0.8 | Liver Necrosis, lesion severity grade (hyg^R mice [4]): 2.2 ± 0.4 | Kidney Tubule degeneration, lesion severity grade (wildtype mice [5]): 2.2 ± 0.4 | Kidney Tubule eosinophilia, lesion severity grade (wildtype mice [5]): 1.0 ± 1.2 | Kidney Tubule necrosis, lesion severity grade (wildtype mice [5]): 1.2 ± 1.1 | Liver Acute inflamation, lesion severity grade (wildtype mice [5]): 0 | Liver Fatty change, lesion severity grade (wildtype mice [5]): 0 | Liver Necrosis, lesion severity grade (wildtype mice [5]): 0
